# Measurements as given in patent US9062028B2, “Bicyclic nitrogen containing heteroaryl TGR5 receptor modulators” (Bristol-Myers Squibb Company, priority 2011, dated 2015).
# Counter-ions that a name gives are not always drawn.
# Biological target: T1, recombinant human TGR5 (Homo sapiens, UniProt Q8TDU6)
# T1 construct: expressed in transfected cells
# T1 sequence (Q8TDU6 1-330): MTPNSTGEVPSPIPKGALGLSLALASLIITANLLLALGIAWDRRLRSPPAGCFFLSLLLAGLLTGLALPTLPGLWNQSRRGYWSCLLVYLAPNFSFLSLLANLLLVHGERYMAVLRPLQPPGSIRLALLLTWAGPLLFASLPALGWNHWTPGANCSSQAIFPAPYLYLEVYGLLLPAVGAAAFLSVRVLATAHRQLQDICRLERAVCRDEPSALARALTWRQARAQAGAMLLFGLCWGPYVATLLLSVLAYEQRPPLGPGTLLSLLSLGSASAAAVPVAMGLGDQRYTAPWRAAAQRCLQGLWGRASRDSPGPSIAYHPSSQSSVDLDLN
# Assay: cAMP assay (cAMP accumulation, HTRF) in CHOK1 cells stably expressing TGR5
# Type: cell-based
# Details: CHOK1 cells stably expressing human TGR5, 30 minutes at RT, 1% DMSO
# Method in brief: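 Agonist-induced cAMP accumulation: stable TGR5-CHOK1 cells treated 30 min at RT with compound (1% DMSO) plus 0.1 mM IBMX. HTRF ratio converted to nM cAMP via standard curve; EC50 from four-parameter logistic fit, midpoint between baseline and maximum.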
row,SMILES,EC50 [nM]
1,"Cc1c(Cl)cccc1OCCOC(=O)N1C[C@@H]2C[C@@H]2c2c(-c3cnn(Cc4cc(C(=O)NCS(=O)(=O)O)ccc4Cl)c3)cccc21 [Example 662, (4-Chloro-3-((4-((1aR,7bS)-3-((2-(3-chloro-2-methylphenoxy)ethoxy)carbonyl)-1a,2,3,7b-tetrahydro-1H-cyclopropa[c]quinolin-7-yl)-1H-pyrazol-1-yl)methyl)benzamido) methanesulfonic acid]",36
2,"COC(=O)[C@@H](CCC(=O)O)NC(=O)c1ccc(Cl)c(Cn2cc(-c3cccc4c3[C@H]3C[C@H]3CN4C(=O)OCCOc3cccc(Cl)c3C)cn2)c1 [Example 672, (R)-4-(4-Chloro-3-((4-((1aR,7bS)-3-((2-(3-chloro-2-methylphenoxy)ethoxy)carbonyl)-1a,2,3,7b-tetrahydro-1H-cyclopropa[c]quinolin-7-yl)-1H-pyrazol-1-yl)methyl)benzamido)-5-methoxy-5-oxopentanoic acid]",43
3,"Cc1c(Cl)cccc1OCCOC(=O)N1C[C@@H]2C[C@@H]2c2c(-c3cnn(Cc4cc(C(=O)NC(CNS(C)(=O)=O)C(=O)O)ccc4Cl)c3)cccc21 (stereo partly drawn) [Example 685, 2-(4-Chloro-3-((4-((1aR,7bS)-3-((2-(3-chloro-2-methylphenoxy)ethoxy)carbonyl)-1a,2,3,7b-tetrahydro-1H-cyclopropa[c]quinolin-7-yl)-1H-pyrazol-1-yl)methyl)benzamido)-3-(methylsulfonamido)propanoic acid]",49
4,"Cc1c(Cl)cccc1OCCOC(=O)N1C[C@@H]2C[C@@H]2c2c(-c3cnn(Cc4cc(C(=O)N[C@@H](CCC[N+](C)(C)C)C(=O)O)ccc4Cl)c3)cccc21 [Example 690, (S)-4-Carboxy-4-(4-chloro-3-((4-((1aR,7bS)-3-((2-(3-chloro-2-methylphenoxy)ethoxy)carbonyl)-1a,2,3,7b-tetrahydro-1H-cyclopropa[c]quinolin-7-yl)-1H-pyrazol-1-yl)methyl)benzamido)-N,N,N-trimethylbutan-1-aminium, TFA salt]",45
5,"Cc1c(Cl)cccc1OCCOC(=O)N1C[C@@H]2C[C@@H]2c2c(-c3cnn(Cc4cc(C(=O)N5C[C@@H](O)C[C@H]5C(=O)O)ccc4Cl)c3)cccc21 [Example 693, (2S,4S)-1-(4-Chloro-3-((4-((1aR,7bS)-3-((2-(3-chloro-2-methylphenoxy)ethoxy)carbonyl)-1a,2,3,7b-tetrahydro-1H-cyclopropa[c]quinolin-7-yl)-1H-pyrazol-1-yl)methyl)benzoyl)-4-hydroxypyrrolidine-2-carboxylic acid]",188
6,"Cc1c(Cl)cccc1OCCOC(=O)N1C[C@@H]2C[C@@H]2c2c(-c3cnn(Cc4cc(C(=O)NC5(CC(=O)O)COC5)ccc4Cl)c3)cccc21 [Example 698, 2-(3-(4-Chloro-3-((4-((1aR,7bS)-3-((2-(3-chloro-2-methylphenoxy)ethoxy)carbonyl)-1a,2,3,7b-tetrahydro-1H-cyclopropa[c]quinolin-7-yl)-1H-pyrazol-1-yl)methyl)benzamido)oxetan-3-yl)acetic acid]",28
7,"Cc1c(Cl)cccc1OCCOC(=O)N1C[C@@H]2C[C@@H]2c2c(-c3cnn(Cc4cc(C(=O)NCC5(C(=O)O)CC5)ccc4Cl)c3)cccc21 [Example 699, 1-((4-Chloro-3-((4-((1aR,7bS)-3-((2-(3-chloro-2-methylphenoxy)ethoxy)carbonyl)-1a,2,3,7b-tetrahydro-1H-cyclopropa[c]quinolin-7-yl)-1H-pyrazol-1-yl)methyl)benzamido)methyl) cyclopropanecarboxylic acid]",41
8,"Cc1c(Cl)cccc1OCCCC(=O)N1CCCOc2c(-c3cnn(Cc4c(F)cc(C(=O)NCS(=O)(=O)O)cc4Cl)c3)cccc21 [Example 702, (3-Chloro-4-((4-(5-(4-(3-chloro-2-methylphenoxy)butanoyl)-2,3,4,5-tetrahydrobenzo[b][1,4]oxazepin-9-yl)-1H-pyrazol-1-yl)methyl)-5-fluorobenzamido)methanesulfonic acid]",46
9,"Cc1c(Cl)cccc1OCCCC(=O)N1CCCOc2c(-c3cnn(Cc4c(F)cc(C(=O)NCCS(=O)(=O)O)cc4Cl)c3)cccc21 [Example 703, 2-(3-Chloro-4-((4-(5-(4-(3-chloro-2-methylphenoxy)butanoyl)-2,3,4,5-tetrahydrobenzo[b][1,4]oxazepin-9-yl)-1H-pyrazol-1-yl)methyl)-5-fluorobenzamido)ethanesulfonic acid]",46
10,"Cc1c(Cl)cccc1OCCCC(=O)N1CCCOc2c(-c3cnn(Cc4ccc(C(=O)NCS(=O)(=O)O)cc4F)c3)cccc21 [Example 719, (4-((4-(5-(4-(3-Chloro-2-methylphenoxy)butanoyl)-2,3,4,5-tetrahydrobenzo[b][1,4]oxazepin-9-yl)-1H-pyrazol-1-yl)methyl)-3-fluorobenzamido)methanesulfonic acid]",188

# The next lines start with the values.
row,EC50 [nM],SMILES
1,1300,"Cc1c(Cl)cccc1OCCCC(=O)N1CCCOc2c(-c3cnn(Cc4c(F)cc(C(=O)NCC[N+](C)(C)C)cc4F)c3)cccc21 [Example 724, 2-(4-((4-(5-(4-(3-Chloro-2-methylphenoxy)butanoyl)-2,3,4,5-tetrahydrobenzo[b][1,4]oxazepin-9-yl)-1H-pyrazol-1-yl)methyl)-3,5-difluorobenzamido)-N,N,N-trimethylethanaminium, TFA salt]"
2,188,"Cc1c(Cl)cccc1OCCCC(=O)N1CCCCc2c(-c3cnn(Cc4cccc(C(=O)NCCC(=O)O)c4)c3)cccc21 [Example 730, 3-(3-((4-(1-(4-(3-Chloro-2-methylphenoxy)butanoyl)-2,3,4,5-tetrahydro-1H-benzo[b]azepin-6-yl)-1H-pyrazol-1-yl)methyl)benzamido)propanoic acid]"
3,1520,"Cc1c(Cl)cccc1OCCCC(=O)N1CCCOc2c(-c3cnn(Cc4ccc(C(=O)N[C@@H](CC(=O)O)C(=O)O)cc4)c3)cccc21 [Example 767, (S)-2-(4-((4-(5-(4-(3-Chloro-2-methylphenoxy)butanoyl)-2,3,4,5-tetrahydrobenzo[b][1,4]oxazepin-9-yl)-1H-pyrazol-1-yl)methyl)benzamido)succinic acid]"
4,200,"Cc1c(Cl)cccc1OCCCC(=O)N1Cc2ccccc2Oc2c(-c3cnn(Cc4c(F)cc(C(=O)NCCC(=O)O)cc4Cl)c3)cccc21 [Example 784, 3-(3-Chloro-4-((4-(10-(4-(3-chloro-2-methylphenoxy)butanoyl)-10,11-dihydrodibenzo[b,f][1,4]oxazepine-6-yl)-1H-pyrazol-1-yl)methyl)-5-fluorobenzamido)propanoic acid]"
5,173,"Cc1c(Cl)cccc1OCCCC(=O)N1CCCOc2c(-c3cnn(Cc4c(F)cc(C(=O)NCC(=O)O)cc4Cl)c3)cccc21 [Example 786, 2-(3-Chloro-4-((4-(5-(4-(3-chloro-2-methylphenoxy)butanoyl)-2,3,4,5-tetrahydrobenzo[b][1,4]oxazepin-9-yl)-1H-pyrazol-1-yl)methyl)-5-fluorobenzamido)acetic acid]"
6,185,"Cc1c(Cl)cccc1OCCCC(=O)N1CCCOc2c(-c3cnn(Cc4c(F)cc(C(=O)N[C@@H](CCCCN)C(=O)O)cc4Cl)c3)cccc21 [Example 792, (S)-6-Amino-2-(3-chloro-4-((4-(5-(4-(3-chloro-2-methylphenoxy)butanoyl)-2,3,4,5-tetrahydrobenzo[b][1,4]oxazepin-9-yl)-1H-pyrazol-1-yl)methyl)-5-fluorobenzamido)hexanoic acid]"
7,1330,"Cc1c(Cl)cccc1OC(C)(C)COC(=O)N1CCCOc2c(-c3cnn(Cc4c(F)cc(C(=O)NCCS(=O)(=O)O)cc4Cl)c3)cccc21 [Example 807, 2-(3-Chloro-4-((4-(5-((2-(3-chloro-2-methylphenoxy)-2-methylpropoxy)carbonyl)-2,3,4,5-tetrahydrobenzo[b][1,4]oxazepin-9-yl)-1H-pyrazol-1-yl)methyl)-5-fluorobenzamido)ethanesulfonic acid]"
8,1340,"Cc1c(Cl)cccc1OC(C)(C)COC(=O)N1CCCOc2c(-c3cnn(Cc4c(F)cc(C(=O)NCCC(=O)O)cc4Cl)c3)cccc21 [Example 808, 3-(3-Chloro-4-((4-(5-((2-(3-chloro-2-methylphenoxy)-2-methylpropoxy)carbonyl)-2,3,4,5-tetrahydrobenzo[b][1,4]oxazepin-9-yl)-1H-pyrazol-1-yl)methyl)-5-fluorobenzamido)propanoic acid]"
9,2000,Cc1c(Cl)cccc1Oc1cccc(C(=O)N2CCCOc3c(-c4cnn(Cc5c(F)cc(C(=O)NCCC(=O)O)cc5Cl)c4)cccc32)c1 [Example 815]
10,1350,"Cc1cccc(OCCCC(=O)N2CCCc3c(-c4cnn(Cc5cccc(C(=O)N(C)CCS(=O)(=O)O)c5)c4)cccc32)c1C [Example 829, 2-(3-((4-(1-(4-(2,3-Dimethylphenoxy)butanoyl)-1,2,3,4-tetrahydroquinolin-5-yl)-1H-pyrazol-1-yl)methyl)-N-methylbenzamido)ethanesulfonic acid]"
11,176,"Cc1cccc(OCCCC(=O)N2CCCc3c(-c4cnn(Cc5cccc(C(=O)N6CCCC(CO)C6)c5)c4)cccc32)c1C (stereo not shown) [Example 830, 4-(2,3-Dimethylphenoxy)-1-(5-(1-(3-(3-(hydroxymethyl)piperidine-1-carbonyl)benzyl)-1H-pyrazol-4-yl)-3,4-dihydroquinolin-1(2H)-yl)butan-1-one]"
12,173,"Cc1cccc(OCCCC(=O)N2CCCc3c(-c4cnn(Cc5cccc(C(=O)N6CCC(CO)CC6)c5)c4)cccc32)c1C [Example 836, 4-(2,3-Dimethylphenoxy)-1-(5-(1-(3-(4-(hydroxymethyl)piperidine-1-carbonyl)benzyl)-1H-pyrazol-4-yl)-3,4-dihydroquinolin-1(2H)-yl)butan-1-one]"
